According to US9694010B2, “Therapeutic formulation and methods of treatment” (MacuCLEAR, Inc., priority 2012, dated 2017):
Structures can show the parent of a compound that is named as a salt. Where two headings read alike, the source gives them in different places.

Columns and labels:
ARPE-19 cells [1] = conditions: 24 hours; for cell viability (maximum protection): P<0.001
Protocol: (§1) The human RPE cell line ARPE-19 (ATCC; Manassas, Va.) was cultured in Dulbecco's Modified Essential Medium (DMEM) supplemented with 10% fetal bovine serum, 50 units/mL penicillin-streptomycin and 2.5 mM glutamine at 37° incubation with 5% CO2. The cell line was not transformed and had structure and function properties characteristic of RPE in vivo. The cells were seeded into 96-well plates, and subconfluent cell monolayers were studied within 3 to 10 passages. Before starting the experimental procedures, the medium was removed and replaced with phenol red-free low-glucose DMEM supplemented with 1% calf serum, 0.06% glutamine, and 1% penicillin-streptomycin.
(§2) The cells were used for experiments when they reached 80% confluence to prevent contact inhibition.
(§3) After the 24-hour exposure, the MTT reagent solution (5 mg/mL) was added to each well in a ratio of 1:10 MTT reagent:culture medium volume. The cultures were incubated with the MTT reagent for 3 hours at 37° C. At the end of incubation, the MTT solution was removed, and 0.1 mL of dimethyl sulfoxide (DMSO) was added to each well to solubilize the purple formazan product. The proportion of viable cells was determined by measuring the optical density (OD) of each sample at 570 nm (A570) using a SpectraCount plate reader (Packard BioScience, Meridan, Conn.). The relationship between the OD readings in the MTT colorimetric assay and the exact cell number was determined by seeding cells at identical densities and then performing the MTT assay and manual hemocytometer cell counts on parallel replicate cultures. Trypan blue was added to the hemocytometer cultures so that only viable, dye-excluding cells were counted. This approach enabled the establishment of a standard curve for A570 versus cell number.
(§4) All data were presented as mean±standard error. A nonpaired Student t test was performed to analyze the significance between 2 means at a certain time point. The differences were considered significant at P<0.05. Results for nitric oxide measurements were expressed in μM nitrite and nitrate per 1×10^6 cells.

ARPE-19 cells [2] = experiment: tBHP-induced toxicity, MTT assay; conditions: 24 hours; for cell viability (maximum protection): 100 μg/mL of hydralazine, P<0.001
Protocol: as §1, §2, §3, §4

ARPE-19 cells [3] = conditions: 1% O2, 1 μg/mL of hydralazine, P<0.001
Protocol: In vitro hypoxia treatment was carried out using a ProOx hypoxia system. […] In hypoxia, oxygen concentrations of 1% O2 and 5% CO2 were maintained using a temperature- and humidity-controlled environmental C-chamber by O2 and CO2 controllers (ProOx Model 110 and ProCO2 Model 120; BioSpherix Ltd., Redfield, N.Y.) with N2 and CO2 gas sources. Reactions were stopped by washing out the medium, and 5 mg/mL MTT at a dilution of 1:10 based on the volume of culture medium was added for 3 hours at 37° C. At the end of incubation, the MTT solution was removed, and the cells were dissolved in 0.1 mL/well DMSO. The proportion viable cells were determined by measuring the OD of each sample at 570 nm using a SpectraCount plate reader (Packard BioScience, Meridan, Conn.).

ARPE-19 cells [4] = conditions: NaN3 0.1-100 mM, hydralazine 1, 3, 10, 30, 100 μg/mL
Protocol: RPE cells were washed and replaced with fresh DMEM-F12 medium containing various concentrations of NaN3 (0.1 mM-100 mM). […] Reactions were stopped by washing out the medium.

[5] = cited from earlier work; for systemic bioavailability: gastrointestinal absorption
[6] = tested on: Human Umbilical Vein Endothelial Cells (HUVEC); experiment: In vitro tube formation; conditions: 100 μg/ml, 48 hours
[7] = 25° C., pH 3.5, cationic form; obtained by extrapolation
Source text: In one embodiment, the hydralazine for use in the formulation is a hydralazine salt such as hydralazine hydrochloride.

[8] = Protocol: Choroidal blood flow, velocity and volume were assessed following the first dosing of test material on each day. […] Measurements were made using a Laser Doppler Flowmetry device, which is a state-of-the-art, non-invasive and quantitative approach for visualizing and measuring subfoveal choroidal blood flow.
There was a trend of increased mean choroidal blood volume and velocity values in hydralazine hydrochloride-treated eyes, which peaked approximately 2 hours after topical ocular dosing on day 1 and returned to baseline values approximately 4 hours after dosing (i.e., 2 hours later). […] By contrast, in normal/healthy subjects both mean values and associated standard deviations (SDs) remained low at all time points on day 1. • Odds ratio analyses of the choroidal blood flow outcomes between the AMD and Normal groups for day 1 were evaluated.

rabbit eye = experiment: 28-day repeat dose ocular toxicity; format: in vivo, Dutch Belted rabbits
Protocol: Hydralazine hydrochloride ophthalmic solutions were prepared essentially as described in Example 1 at concentrations of 0.0% (vehicle), 0.5% hydralazine hydrochloride, 1.0% hydralazine hydrochloride, and 2.0% hydralazine hydrochloride. The formulation, vehicle or control was administered daily for 28 days to the designated eye of forty Dutch Belted rabbits (5 males and 5 females per group) as shown in Table 2. […]
A modified Hackett and McDonald microscopic ocular grading system (Hackett 1996) was applied to ocular findings following the use of a slit-lamp biomicroscope, which included insertion of a blue filter to assess for fluorescein dye retention. For any evaluated microscopic ocular examination parameter, there were no statistically significant differences, in either male or female rabbits, between Group 1 and Groups 2-4 during the pre dose or Day 29 study measurement periods.
Mean tonometry (Tono-pen; Reichert Ophthalmic Instruments, Depew, N.Y.) readings of IOP in control and test rabbits pre-dose and on Day 29 were between 15-25 mmHg, which is within the normal physiologic range. […]

[9] = all subjects
Source text: Subjects in the dry AMD group had evidence of small and intermediate drusen, minimal or no pigment abnormalities in the macula (i.e., risk factor 2 on the AREDS Simplified Grading Scale), and a Snellen equivalent best corrected visual acuity (BCVA) equal to or better than 20/100.
The patients received 1 drop of test material in one eye and vehicle control in the contra-lateral eye. The patients administered the first dose of each day in the clinical setting and self-administered the remaining two doses of the day at prescribed time points.
On days 2 and 3, the evaluations were after the first two time-points. The 7th dose was administered in the morning on day 3. Seven days after the final dose, patients were contacted via telephone to evaluate any post study adverse events or issues.

With OO [Formulation H2O2, hydrogen peroxide] the cell viability (ARPE-19 cells [1]; 0.3 mM H2O2 alone) was 48.74%±2.40% and the cell viability (ARPE-19 cells [1]; 1.0 mM H2O2 alone) was 41.28%±0.80%.
For CC(C)(C)OO [tBHP, Tert-Butyl hydroperoxide], the cell viability (ARPE-19 cells [2]; 0.01 mM tBHP alone) was 89.90%±2.80% and the cell viability (ARPE-19 cells [2]; 0.03 mM tBHP alone) was 55.80%±4.08%.
With NNc1nncc2ccccc12 [hydralazine] the “cell viability (maximum protection)” value (ARPE-19 cells [2]; insult 0.01 mM tBHP) was 109.99%±2.41%, the “cell viability (maximum protection)” value (ARPE-19 cells [2]; insult 0.03 mM tBHP) was 100.84%±13.00% and the “cell viability (maximum protection)” value (ARPE-19 cells [1]; insult 0.3 mM H2O2 (second statement), 30 μg/mL of hydralazine) was 68.04%±0.67%. The “cell viability (maximum protection)” value (ARPE-19 cells [1]; insult 0.3 mM H2O2, 30 μg/mL of hydralazine) was 74.30% ±0.80%, the “cell viability (maximum reversion)” value (ARPE-19 cells [3]; 48 hours) was 101.21%±0.54% and the “cell viability (maximum reversion)” value (ARPE-19 cells [3]; 72 hours) was 103.55%±1.75%. The “effect on NaN3 chemically-induced hypoxia (viable cells)” value (ARPE-19 cells [4]) was “no significant effect”, the systemic clearance ([5]; exceeds hepatic blood flow) was 50 mL/min/kg and the systemic bioavailability ([5]; fast acetylators) was 16%. For the same compound, the systemic bioavailability ([5]; slow acetylators) was 35%, the plasma half-life ([5]; in vivo) was 3 to 7 h and the “time of peak concentration in plasma and maximal hypotensive effect” value ([5]; orally administered) was 30 to 120 min. The “effect on HUVEC” value [6] was “caused apoptosis”.
For NNc1nncc2ccccc12 [hydralazine hydrochloride, Hydralazine hydrochloride], the “rate constant (time with less than a 10% loss)” value [7] was 1.5 years, the “odds ratio, choroidal blood volume outcome, AMD vs Normal group” value ([8]; day 1, 60 minute time point (p=0.337)) was 0.22 and the “odds ratio, choroidal blood volume outcome, AMD vs Normal group” value ([8]; day 1, 120 minute time point (p=0.106)) was 6.67. The “time of peak of mean choroidal blood volume and velocity” value ([8]; day 1, after topical ocular dosing, back to baseline approximately 4 hours after dosing) was “approximately 2 hours”, the “choroidal blood flow, mean scores” value ([8]; treated eyes in AMD subjects) was “trend towards improved mean scores” and the dose-related toxicologic changes (rabbit eye; 28 days of daily topical ocular treatment, 0.5-2.0%, 40 μL) was “did not result in the development of significant doserelated toxicologic changes”. The ocular histopathology (rabbit eye; daily application of up to 2.0% for 28 days) was “did not result in the development of ocular pathology, inflammation, degeneration, or histologic evidence of toxicity”, the “average time to resolution of ocular hyperemia” value ([9]; range 1 to 4 days) was 1.85 days and the “ocular hyperemia, treated eyes” value ([9]; hydralazine hydrochloride-treated eyes, 1 vehicle-treated eye) was 21 eyes.
